“And” between values parts separate entries of the source, which are not always exact repeats. Identical values can stand only once.
Key:
TgCRND8 mice [1] = test: Aβ plaque burden by 4G8 immunostaining in cortex and hippocampus; format: in vivo, mouse
N2a-SwedAPP cells = test: Western blot of N2a-SwedAPP cell lysates (p-Akt, pGSK3, CTFs, p-APP, PHF-1); format: cell-based, mouse
Procedure: N2a-SweAPP cells are mouse neuroblastoma N2a cells stably transfected with human Swedish mutant APP695, and were gifts from Dr. Gopal Thinakaran (University of Chicago, Chicago Ill.). Cells were maintained in Dulbecco's modified Eagle's medium (DMEM) (Invitrogen, Carlsbad, Calif.) supplemented with 10% fetal bovine serum, penicillin and streptomycin and 200 μg/mL G418 (Invitrogen). Cells were cultured either in multiwell dishes or on 60 mm tissue culture plates in DMEM 10% with FBS Cell cultures were incubated at 37° C. in a humid 5% CO2/ 95% air environment. After cells were grown close to confluence, they were treated with/without different concentrations of BBR in DMEM (1% FBS) for 24 h. […] For the concentration-dependent treatment, cells were treated with serial dilutions of BBR ranging from 0-20 μM for 2 or 12 h prior to lysis with ice-cold RIPA buffer (20 mM Tris, pH 7.4, 150 mM NaCl, 1% triton-X, 0.5% sodium deoxycholate, EDTA) containing protease inhibitor cocktails (EMD chemicals, Philadelphia, Pa.) to find the optimal range of BBR. For the time-dependent application, cells were treated with a 20 μM concentration of BBR and incubated at time points ranging from 0-180 min prior to lysis. For immunofluorescent staining, N2a-SwedAPP cells were seeded on glass cover slips at a density of 0.5×10^5 viable cells per well in a 24-well plate. Cells on cover slips were treated with BBR (20 μM) for 3 h with or without pretreatment of LY294002 (Cell signaling Technology, Danvers, Mass.), a specific inhibitor of Akt upstream kinase phosphatidylinositol 3-kinase (PI3K) (Vlahos et al., 1994) in serum-free DMEM for 1 h, whereas control cells were incubated with vehicle (DMSO) alone in DMEM.
The brain SDS fraction as described above was used to detect the full-length APP (Fl-APP), APP C-terminal fragments (CTFs: CTF-β and CTF-α), p-APP, p-CTFs, BACE-1, ADAM-10, neprilysin, insulin-degrading enzyme (IDE), GSK3α/β, p-cyclin-dependent kinase 5 (p-CDKS), p-stress-activated protein kinase/Jun-amino-terminal kinase (p-JNK), phospho-tau epitopes and β-actin in Western blot analysis. For cell homogenates preparation, cells were washed with phosphate-buffered saline (PBS) and solubilized in ice-cold RIPA buffer. Equal amounts of protein (30 μg) were subjected to 10 and 15% SDS polyacrylamide gels, transferred onto PVDF membranes (GE Healthcare, Piscataway, N.J.) at 300 mA for 2 h, and then blocked with 5% fat-free milk in Tris-buffered saline and 0.1% Tween-20 for 2 h at room temperature. The membrane was then incubated with primary antibodies overnight at 4C. The antibodies used in Western blots were β-actin (mouse, 1:5000; Santa Cruz, Calif.), p-APP (rabbit, 1:1000; Cell signaling Technology), BACE-1 (rabbit, 1:1000; Abcam, Cambridge, Mass.), ADAM-10 (rabbit, 1:2000; EMD chemicals), insulin-degrading enzyme (IDE) (rabbit, 1:1000, Abcam), neprilysin (rabbit, 1:1000 Millipore, Temecula, Calif.), Akt (rabbit, 1:1000; Cell Signaling Technology), p-Akt (rabbit, 1:1000; Cell signaling), glycogen synthase kinase 3α/β(GSK-3α/β)[Ser21/9] (rabbit, 1:1000; Cell signaling Technology), pGSK-3α/βSer21/9] (rabbit, 1:1000; Cell signaling Technology), Cdk5[Y15] (rabbit, 1:1000; Abcam), JNK (Thr183/Tyr185) (rabbit, 1:1000, Cell signaling Technology), the C-terminal anti-APP antibody CT15 for full-length APP and CTFβ and CTFα (rabbit, 1:2000, and three mouse monoclonal antibodies against phosphorylated tau: AT8 (recognizes phosphorylated tau at Ser-202 and Thr-205, 1:1000, Pierce, Rockford, Ill.), AT180 (recognizes phosphorylated tau at Thr-231 and Ser-235, 1:1000, Pierce) and PHF-1 (recognizes -phosphorylated tau at […] and Ser 404, 1:2000, and one mouse monoclonal against dephosphorylaed tau: Tau-1 (recognizes the tau when serines 195, 198, 199, and 202 are dephosphorylated, 1:2000,). Mouse monoclonal Tau-5 used to recognize total tau (mouse 1:2000). Blots were washed in and incubated with corresponding horseradish peroxidase-conjugated secondary antibody. […]

Aβ1-42 fibril formation = Aβ1-42 fibril formation (Homo sapiens, UniProt P05067); settings: BBR 20 μM, in vitro; cited from earlier work
TgCRND8 mice [2] = test: Microgliosis (Iba-1 burden) and astrocytosis (GFAP burden) immunohistochemistry; format: in vivo, mouse
TgCRND8 mice [3] = test: Thioflavin S staining of fibrillar parenchymal and cerebrovascular (CAA) Aβ; format: in vivo, mouse; settings: for reduction in ThioS-positive fibrillar Aβ: relative to untreated control TgCRND8
[4] = BBR-treated TgCRND8, dose not stated (discussion)

Chain of Aβ1-42 fibril formation (P05067 672-713 limits assumed): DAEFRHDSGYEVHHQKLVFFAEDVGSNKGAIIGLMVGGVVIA

## COc1ccc2cc3[n+](cc2c1OC)CCc1cc2c(cc1-3)OCO2 [BBR, 5,6-dihydro-9,10-dimethoxybenzo[g]-1,3-benzodioxolo[5,6-a]quinolizinium]
TgCRND8 mice [1]; 25 mg/Kg/d
  decrease in plaque burden compared with control animals (4G8): 60% and 61%
TgCRND8 mice [1]; range over BBR doses (discussion)
  reduction in amyloid burden observed in this study: 43-63%
N2a-SwedAPP cells; 5 μM BBR, 12 hours
  reduction in the level of CTFs: 24%
N2a-SwedAPP cells; 10 μM BBR, 12 hours
  decrease of p-APP (Thr668) level: 50%
  level of tau bound to PHF-1 decreased to % compared to control: 30%
N2a-SwedAPP cells; 20 μM BBR, 0-180 min, remains higher than control beyond 3 h
  amount of phosphorylated GSK3, time course: increases during the first 30 min
N2a-SwedAPP cells; 20 μM BBR, 12 hours
  decrease of p-APP (Thr668) level: 75%
  level of tau bound to PHF-1 decreased to % compared to control: 50%
  reduction of CTFs level (of basal level), maximal: 55%
N2a-SwedAPP cells; BBR 10 and 20 μM, 3 hours
  phosphorylation of Akt at Ser 473 and GSK3 at Ser 21 and Ser9, concentration-dependent: significant increases
N2a-SwedAPP cells; BBR treatment
  cellular total Akt and GSK3β levels: does not significantly affect
Aβ1-42 fibril formation
  inhibition of Aβ1-42 fibril formation: 36.3%
TgCRND8 mice [2]; 25 mg/Kg
  GFAP burden (astrocytosis) reduced to % relative to vehicle-treated: 54%
TgCRND8 mice [2]; 25 mg/Kg/d
  Iba-1 burden (microgliosis) reduced to % relative to vehicle-treated: 45%
TgCRND8 mice [2]; 100 mg/Kg
  GFAP burden (astrocytosis) reduced to % relative to vehicle-treated: 28%
TgCRND8 mice [2]; 100 mg/Kg/d
  Iba-1 burden (microgliosis) reduced to % relative to vehicle-treated: 27%
TgCRND8 mice [2]; [4]
  decrease in astrocytosis: 54%
  reduction in microgliosis: 45%
TgCRND8 mice [3]; 25 mg/Kg/d (vehicle 1.44±0.17%)
  ThioS-labeled blood vessels (CAA), cortical area covered: 0.70% ±0.11
TgCRND8 mice [3]; 25 mg/kg/d
  reduction in ThioS-positive fibrillar Aβ: 40%
TgCRND8 mice [3]; 100 mg/Kg/d (vehicle 1.44±0.17%)
  ThioS-labeled blood vessels (CAA), cortical area covered: 0.89%±0.02
TgCRND8 mice [3]; 100 mg/kg/d
  reduction in ThioS-positive fibrillar Aβ: 51%
